Values of other authors in patent US9617305B2 (priority 2011, dated 2017).
Where a SMILES comes first, the peptide text is derived from it. Bridges are numbered along the chain shown (N, C = ends).

Conditions: after oral administration at therapeutic dose levels

In the case of C[C@@H]1NC(=O)[C@@H]2CCCN2C(=O)[C@H](CC(N)=O)NC(=O)[C@@H]2CSSC[C@H](N)C(=O)N[C@H]3CSSC[C@H](NC1=O)C(=O)N[C@@H]([C@@H](C)O)C(=O)NCC(=O)N[C@H](C(=O)N[C@@H](Cc1ccc(O)cc1)C(=O)O)CSSC[C@H](NC(=O)[C@H](Cc1ccc(O)cc1)NC(=O)[C@H](CCC(=O)O)NC3=O)C(=O)N2 [linaclotide, Linaclotide] (H-CCEYCCNPACTGCY-OH; disulfide 1-6, 2-10, 5-13), the “levels of linaclotide seen systemically” value is listed as “no detectable levels”.
